Results on three molecules are retold here after patent US7169768B1, “Method of decreasing atherosclerosis and its complications” (priority 1997, dated 2007).

The nature of the test: Retrospective questionnaire study of patient-reported cardiac events (heart attack, coronary artery bypass or angioplasty). The test is classed as in vivo, patients. Particulars: for Events/Year: cardiac events per subject year, patients on drug for at least one year; for Cardiac Events: number of cardiac events (history of heart attack, coronary artery bypass or angioplasty) in patients on drug for at least one year; for observed difference between the proportions vs Total Control: treated group vs Total Control (Groups 1 + 4); for heart attacks compared with controls (in words): treated patients vs controls. The method, then: A retrospective study was performed which compared the rates of patient reported heart attack in several groups: 1—control group of males entering the urology office for any routine complaint. 2—a group of prostate cancer patients treated with Leuprolide acetate, a LHRH inhibitor. 3—a group of prostate cancer patients treated with Goserelin acetate (Zoladex), a LHRH inhibitor. 4—a group of prostate cancer patients not treated with hormonal manipulation (neither Leuprolide or Goserelin). 5—a group of patients treated with Finasteride (another form of hormonal manipulation). 6—all patients on LHRH inhibitors (group 2+group 3). The patients on either leuprolide acetate or goserelin acetate were treated with the recommended doses indicated for the treatment of prostatic carcinoma, at either one or three month intervals depending on the preparation used. Leuprolide was dosed at 7.5 mg monthly (single intramuscular injection) or at 22.5 mg at 3 month intervals (single intramuscular injection). Goserelin was dosed at 3.6 mg monthly (subcutaneous injection) or at a dose of 10.8 mg at 3 month intervals (subcutaneous injection). The various groups of office patients were given a questionnaire. In groups 2, 3 and 5 only those on drug for at least one year were considered. Cardiac event is defined as either the history of a heart attack or occurrence of coronary artery bypass or angioplasty. In control groups only events occurring in the 3 years prior to the questionnaire are charted.

Consider `CC(=O)O.CCNC(=O)[C@@H]1CCCN1C(=O)[C@H](CCCNC(=N)N)NC(=O)[C@H](CC(C)C)NC(=O)[C@@H](CC(C)C)NC(=O)[C@H](Cc1ccc(O)cc1)NC(=O)[C@H](CO)NC(=O)[C@H](Cc1c[nH]c2ccccc12)NC(=O)[C@H](Cc1c[nH]cn1)NC(=O)[C@@H]1CCC(=O)N1` [leuprolide acetate, 5-oxo-L-prolyl-L-histidyl-L-tryptophyl-L-seryl-L-tyrosyl-D-leucyl-L-leucyl-L-arginyl-N-ethyl-L-prolinamide acetate salt], for which the Events/Year entry is reported as “.00847”, the “Cardiac Events” value was found to be 1, the “observed difference between the proportions vs Total Control” value turned out to be 0.0253 and the “heart attacks compared with controls (in words)” value is on record as “fewer heart attacks than controls”.

`CC(C)C[C@H](NC(=O)[C@@H](COC(C)(C)C)NC(=O)[C@H](Cc1ccc(O)cc1)NC(=O)[C@H](CO)NC(=O)[C@H](Cc1c[nH]c2ccccc12)NC(=O)[C@H](Cc1cnc[nH]1)NC(=O)[C@@H]1CCC(=O)N1)C(=O)N[C@@H](CCCNC(=N)N)C(=O)N1CCC[C@H]1C(=O)NNC(N)=O` [goserelin acetate, pyro-Glu-His-Trp-Ser-Tyr-D-Ser(Bu)-Leu-Arg-Pro-Azgly-NH2 acetate]: the Events/Year entry is listed as “.0161”, the “Cardiac Events” value was found to be 1, the “observed difference between the proportions vs Total Control” value is listed as 0.0177 and the “heart attacks compared with controls (in words)” value is given as “fewer heart attacks than controls”.

For the molecule `CC(C)(C)NC(=O)[C@H]1CC[C@H]2[C@@H]3CC[C@H]4NC(=O)C=C[C@]4(C)[C@H]3CC[C@]12C` [Finasteride], the Events/Year result is listed as “.0165”, the “Cardiac Events” value stood at 4 and the “heart attacks compared with controls (in words)” value is reported as “fewer heart attacks than control”. In addition, the “observed difference between the proportions vs Group 1 (Control)” value (Group 5 vs Group 1 (control, no cancer)) stood at 0.0186.
